# Assay results reported in patent US9326506B2, “Preparation method, agricultural composition and applications of natural brassinolide analogs” (CHENGDU NEWSUN CROPSCIENCE CO., LTD, priority 2012, dated 2016).
# Tested on: rice
# Assay: Low temperature assay on rice seedlings
# Assay type: in vivo
# Experimental: According to a low temperature assay, we measured parameters including plant height, number of leaf, area of leaf, number of tiller, weight of root at low temperature to completely determine effects of the natural brassinolide analogues on the resistance to low temperature of a plant.
# The natural brassinolide analogues, BR1, BR2, BR3, BR4, BR5 and BR6, used herein, were those prepared by the method of Example 1. Respectively the analogues were dissolved into 95% (V/V) ethanol solution, and then diluted with pure water to 1 mg/L, 0.1 mg/L, 0.01 mg/L, 0.001 mg/L and 0.0001 mg/L. In addition, pure water was used as a control.
# After rice seeds were disinfected by using 5% sodium hypochlorite solution treatment, they were rinsed with distilled water until their pH>7, placed into a petri dish in a dark incubator, and cultured by using water at 30° C.±2° C. for 9 days. Then respectively the nine-day-old etiolated seedlings of rice were immersed in the above solutions containing different concentrations of the natural brassinolide analogues or pure water, and cultured at the temperature of 1° C., 2° C., 3° C., 4° C. and 5° C. for 24 hr. The parameters including plant height, area of leaf and weight of root after 3, 6, 9 and 12 days and number of leaf and number of tiller after 12 days were measured.
compound,measurement,setting,value
CC(C)C[C@@H](O)[C@H](O)[C@@H](C)[C@H]1CCC2C3CC(=O)C4C[C@H](O)[C@H](O)C[C@]4(C)C3CC[C@@]21C (stereo partly shown) [BR5],Area of leaf,"0.001 mg/l, 2 °C, 6 days",11.6 cm^2
same,Height,"0.001 mg/l, 2 °C, 6 days",7.1 cm
same,Weight of root,"0.001 mg/l, 2 °C, 6 days",3.0 g
same,Area of leaf,"0.001 mg/l, 2 °C, 9 days",12.2 cm^2
same,Height,"0.001 mg/l, 2 °C, 9 days",7.3 cm
same,Weight of root,"0.001 mg/l, 2 °C, 9 days",3.2 g
same,Area of leaf,"0.001 mg/l, 2 °C, 12 days",13.1 cm^2
same,Height,"0.001 mg/l, 2 °C, 12 days",7.3 cm
same,Number of leaf,"0.001 mg/l, 2 °C, 12 days",3
same,Number of tiller,"0.001 mg/l, 2 °C, 12 days",3
same,Weight of root,"0.001 mg/l, 2 °C, 12 days",3.9 g
same,Area of leaf,"0.001 mg/l, 3 °C, 3 days",10 cm^2
same,Height,"0.001 mg/l, 3 °C, 3 days",7 cm
same,Weight of root,"0.001 mg/l, 3 °C, 3 days",2.5 g
same,Area of leaf,"0.001 mg/l, 3 °C, 6 days",12 cm^2
same,Height,"0.001 mg/l, 3 °C, 6 days",7 cm
same,Weight of root,"0.001 mg/l, 3 °C, 6 days",2.6 g
same,Area of leaf,"0.001 mg/l, 3 °C, 9 days",12.4 cm^2
same,Height,"0.001 mg/l, 3 °C, 9 days",7.3 cm
same,Weight of root,"0.001 mg/l, 3 °C, 9 days",2.9 g
same,Area of leaf,"0.001 mg/l, 3 °C, 12 days",13 cm^2
same,Height,"0.001 mg/l, 3 °C, 12 days",7.4 cm
same,Number of leaf,"0.001 mg/l, 3 °C, 12 days",3
same,Number of tiller,"0.001 mg/l, 3 °C, 12 days",2
same,Weight of root,"0.001 mg/l, 3 °C, 12 days",2.9 g
same,Area of leaf,"0.001 mg/l, 4 °C, 3 days",10 cm^2
same,Height,"0.001 mg/l, 4 °C, 3 days",7.1 cm
same,Weight of root,"0.001 mg/l, 4 °C, 3 days",2.5 g
same,Area of leaf,"0.001 mg/l, 4 °C, 6 days",12.1 cm^2
same,Height,"0.001 mg/l, 4 °C, 6 days",7.3 cm
same,Weight of root,"0.001 mg/l, 4 °C, 6 days",2.6 g
same,Area of leaf,"0.001 mg/l, 4 °C, 9 days",13 cm^2
same,Height,"0.001 mg/l, 4 °C, 9 days",7.5 cm
same,Weight of root,"0.001 mg/l, 4 °C, 9 days",2.9 g
same,Area of leaf,"0.001 mg/l, 4 °C, 12 days",13.5 cm^2
same,Height,"0.001 mg/l, 4 °C, 12 days",7.5 cm
same,Number of leaf,"0.001 mg/l, 4 °C, 12 days",3
same,Number of tiller,"0.001 mg/l, 4 °C, 12 days",2
same,Weight of root,"0.001 mg/l, 4 °C, 12 days",2.9 g
same,Area of leaf,"0.001 mg/l, 5 °C, 3 days",10.2 cm^2
same,Height,"0.001 mg/l, 5 °C, 3 days",7.2 cm
same,Weight of root,"0.001 mg/l, 5 °C, 3 days",2.8 g
same,Area of leaf,"0.001 mg/l, 5 °C, 6 days",14 cm^2
same,Height,"0.001 mg/l, 5 °C, 6 days",7.5 cm
same,Weight of root,"0.001 mg/l, 5 °C, 6 days",2.9 g
same,Area of leaf,"0.001 mg/l, 5 °C, 9 days",15.4 cm^2
same,Height,"0.001 mg/l, 5 °C, 9 days",7.6 cm
same,Weight of root,"0.001 mg/l, 5 °C, 9 days",3.0 g
same,Area of leaf,"0.001 mg/l, 5 °C, 12 days",16 cm^2
same,Height,"0.001 mg/l, 5 °C, 12 days",8 cm
same,Number of leaf,"0.001 mg/l, 5 °C, 12 days",3
same,Number of tiller,"0.001 mg/l, 5 °C, 12 days",3
same,Weight of root,"0.001 mg/l, 5 °C, 12 days",3.4 g
same,Area of leaf,"0.01 mg/l, 1 °C, 3 days",10.1 cm^2
same,Height,"0.01 mg/l, 1 °C, 3 days",7.0 cm
same,Weight of root,"0.01 mg/l, 1 °C, 3 days",2.8 g
same,Area of leaf,"0.01 mg/l, 1 °C, 6 days",11.6 cm^2
same,Height,"0.01 mg/l, 1 °C, 6 days",7.2 cm
same,Weight of root,"0.01 mg/l, 1 °C, 6 days",3.0 g
same,Area of leaf,"0.01 mg/l, 1 °C, 9 days",12 cm^2
same,Height,"0.01 mg/l, 1 °C, 9 days",7.3 cm
same,Weight of root,"0.01 mg/l, 1 °C, 9 days",3.1 g
same,Area of leaf,"0.01 mg/l, 1 °C, 12 days",13.6 cm^2
same,Height,"0.01 mg/l, 1 °C, 12 days",7.5 cm
same,Number of leaf,"0.01 mg/l, 1 °C, 12 days",3
same,Number of tiller,"0.01 mg/l, 1 °C, 12 days",3
same,Weight of root,"0.01 mg/l, 1 °C, 12 days",3.9 g
same,Area of leaf,"0.01 mg/l, 2 °C, 3 days",10.1 cm^2
same,Height,"0.01 mg/l, 2 °C, 3 days",7.1 cm
same,Weight of root,"0.01 mg/l, 2 °C, 3 days",2.8 g
same,Area of leaf,"0.01 mg/l, 2 °C, 6 days",11.1 cm^2
same,Height,"0.01 mg/l, 2 °C, 6 days",7.2 cm
same,Weight of root,"0.01 mg/l, 2 °C, 6 days",3 g
same,Area of leaf,"0.01 mg/l, 2 °C, 9 days",12.1 cm^2
same,Height,"0.01 mg/l, 2 °C, 9 days",7.5 cm
same,Weight of root,"0.01 mg/l, 2 °C, 9 days",3 g
same,Area of leaf,"0.01 mg/l, 2 °C, 12 days",13.4 cm^2
same,Height,"0.01 mg/l, 2 °C, 12 days",7.5 cm
same,Number of leaf,"0.01 mg/l, 2 °C, 12 days",3
same,Number of tiller,"0.01 mg/l, 2 °C, 12 days",3
same,Weight of root,"0.01 mg/l, 2 °C, 12 days",3.2 g
same,Area of leaf,"0.01 mg/l, 3 °C, 3 days",10.2 cm^2
same,Height,"0.01 mg/l, 3 °C, 3 days",7.1 cm
same,Weight of root,"0.01 mg/l, 3 °C, 3 days",2.5 g
same,Area of leaf,"0.01 mg/l, 3 °C, 6 days",12 cm^2
same,Height,"0.01 mg/l, 3 °C, 6 days",7.2 cm
same,Weight of root,"0.01 mg/l, 3 °C, 6 days",2.6 g
same,Area of leaf,"0.01 mg/l, 3 °C, 9 days",12.2 cm^2
